Test results from patent publication US9149038B2, “4-amino-6-(heterocyclic)picolinates and 6-amino-2-(heterocyclic)pyrimidine-4-carboxylates and their use as herbicides” (Dow AgroSciences LLC, priority 2013, dated 2015).
Like-named read-outs stand apart in the source and are kept apart here.

Tested on: Wheat and Barley and weed species
Assay: Post-Emergent Test III: postemergent herbicidal activity in wheat and barley, visual rating after 21 d and probit GR20/GR50/GR80/GR90 (Tables 9-13)
Type: in vivo
Details: for pest or weed control at 17.5 g/ha / pest or weed control at 35 g/ha / pest or weed control at 70 g/ha: post-emergence, 504 h
In short: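 Greenhouse plants (~18/17 °C, 14 h photoperiod) at second–third true leaf stage sprayed at 187 L/ha with a high rate and ½× to 1/16× serial dilutions. Visual injury 0–100% versus solvent-blank controls scored at 21 d; GR20, GR50, GR80 and GR90 derived by probit analysis across rates.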

In the case of `COC(=O)c1nc(-c2cc3c(cc2F)OC(F)(F)O3)cc(N)c1Cl` [Compound 32], the “GR50 ALOMY” value (ALOMY black-grass (Alopecurus myosuroides), growth reduction of 50%, probit analysis) is reported as 5 g ai/ha, the “GR80 ALOMY” value (ALOMY black-grass (Alopecurus myosuroides), growth reduction of 80%, probit analysis) is reported as 12 g ai/ha and the “GR90 ALOMY” value (ALOMY black-grass (Alopecurus myosuroides), growth reduction of 90%, probit analysis) is reported as 18 g ai/ha. The “Visual Growth Reduction (%) 21 Days After Application AVEFA” value (AVEFA wild oat (Avena fatua), 17.5 g ai/ha) was “E (45-59)”, the “Visual Growth Reduction (%) 21 Days After Application AVEFA” value (AVEFA wild oat (Avena fatua), 35 g ai/ha) was “D (60-74)” and the “Visual Growth Reduction (%) 21 Days After Application AVEFA” value (AVEFA wild oat (Avena fatua), 70 g ai/ha) was “D (60-74)”. For the same molecule, the “GR50 AVEFA” value (AVEFA wild oat (Avena fatua), growth reduction of 50%, probit analysis) was 31 g ai/ha, the “GR80 AVEFA” value (AVEFA wild oat (Avena fatua), growth reduction of 80%, probit analysis) was over 70 g ai/ha and the “GR90 AVEFA” value (AVEFA wild oat (Avena fatua), growth reduction of 90%, probit analysis) was over 70 g ai/ha. The “GR20 HORVS” value (HORVS barley, spring (crop), growth reduction of 20%, probit analysis) was 3 g ai/ha, the pest or weed control at 17.5 g/ha (Hordeum vulgare, HORVS barley, spring (crop), 17.5 g ai/ha, read-out: Visual Growth Reduction (%) 21 Days After Application HORVS) was 45 to 59% and the pest or weed control at 35 g/ha (Hordeum vulgare, HORVS barley, spring (crop), 35 g ai/ha, read-out: Visual Growth Reduction (%) 21 Days After Application HORVS) was 60 to 74%. The pest or weed control at 70 g/ha (Hordeum vulgare, HORVS barley, spring (crop), 70 g ai/ha, read-out: Visual Growth Reduction (%) 21 Days After Application HORVS) was 60 to 74%, the “GR50 LOLSS” value (LOLSS ryegrass, growth reduction of 50%, probit analysis) was 54 g ai/ha and the “GR80 LOLSS” value (LOLSS ryegrass, growth reduction of 80%, probit analysis) was over 70 g ai/ha. The “GR90 LOLSS” value (LOLSS ryegrass, growth reduction of 90%, probit analysis) was over 70 g ai/ha, the “Visual Growth Reduction (%) 21 Days After Application PHAMI” value (PHAMI lesser canary grass (Phalaris minor), 17.5 g ai/ha) was “G (0-29)” and the “Visual Growth Reduction (%) 21 Days After Application PHAMI” value (PHAMI lesser canary grass (Phalaris minor), 35 g ai/ha) was “F (30-44)”. The “Visual Growth Reduction (%) 21 Days After Application PHAMI” value (PHAMI lesser canary grass (Phalaris minor), 70 g ai/ha) was “E (45-59)”, the “GR50 PHAMI” value (PHAMI lesser canary grass (Phalaris minor), growth reduction of 50%, probit analysis) was 65 g ai/ha and the “GR80 PHAMI” value (PHAMI lesser canary grass (Phalaris minor), growth reduction of 80%, probit analysis) was over 70 g ai/ha. For the same molecule, the “GR90 PHAMI” value (PHAMI lesser canary grass (Phalaris minor), growth reduction of 90%, probit analysis) was over 70 g ai/ha, the “GR20 TRZAS” value (TRZAS wheat, spring (crop), growth reduction of 20%, probit analysis) was 1 g ai/ha and the pest or weed control at 17.5 g/ha (Triticum aestivum, TRZAS wheat, spring (crop), 17.5 g ai/ha, read-out: Visual Growth Reduction (%) 21 Days After Application TRZAS) was 60 to 74%. It also gave a pest or weed control at 35 g/ha (Triticum aestivum, TRZAS wheat, spring (crop), 35 g ai/ha, read-out: Visual Growth Reduction (%) 21 Days After Application TRZAS) of 60 to 74%, a pest or weed control at 70 g/ha (Triticum aestivum, TRZAS wheat, spring (crop), 70 g ai/ha, read-out: Visual Growth Reduction (%) 21 Days After Application TRZAS) of 75 to 84% and a pest or weed control at 17.5 g/ha (ALOMY black-grass (Alopecurus myosuroides), 17.5 g ai/ha, read-out: Visual Growth Reduction (%) 21 Days After Application ALOMY) of 85 to 94%. For the same molecule, the pest or weed control at 35 g/ha (ALOMY black-grass (Alopecurus myosuroides), 35 g ai/ha, read-out: Visual Growth Reduction (%) 21 Days After Application ALOMY) was 95 to 100%, the pest or weed control at 70 g/ha (ALOMY black-grass (Alopecurus myosuroides), 70 g ai/ha, read-out: Visual Growth Reduction (%) 21 Days After Application ALOMY) was 95 to 100% and the pest or weed control at 17.5 g/ha (LOLSS ryegrass, 17.5 g ai/ha, read-out: Visual Growth Reduction (%) 21 Days After Application LOLSS) was 0 to 29%. It also gave a pest or weed control at 35 g/ha (LOLSS ryegrass, 35 g ai/ha, read-out: Visual Growth Reduction (%) 21 Days After Application LOLSS) of 30 to 44% and a pest or weed control at 70 g/ha (LOLSS ryegrass, 70 g ai/ha, read-out: Visual Growth Reduction (%) 21 Days After Application LOLSS) of 60 to 74%.
